Reference: ChEMBL document CHEMBL5370660, “Design of a Supersoft Topical JAK Inhibitor, Which Is Effective in Human Skin but Rapidly Deactivated in Blood” (J Med Chem, 2023)
Values after ≈ are worked out from the molar mass of the structure shown.

Experiments:
JAK2/JAK1 = JAK2/JAK1 (Homo sapiens, UniProt O60674+P23458); assay: Inhibition of JAK1/2-mediated STAT1 phosphorylation in human M07E cells preincubated for 30 mins followed by IFN-alpha stimulation measured after 15 mins by flow cytometry; assay type: cell-based
[1] = Stability in human whole blood assessed as half life at 1 uM incubated upto 8 hrs by LC-MS/MS analysis; assay type: ADME, tissue-based
[2] = Metabolic stability in human skin S9 fraction measured upto 120 mins by LC-MS analysis; assay type: ADME, subcellular
[3] = target: Tyrosine-protein kinase JAK1 (Homo sapiens, UniProt P23458); assay: Inhibition of GST-fused JAK1 (866 to 1154 residues)(unknown origin) using FITC-Ahr-KKSRGDYMTMQIG-NH2 peptide as substrate incubated for 30 mins in presence of ATP by caliper microfluidic mobility shift assay
[4] = target: Tyrosine-protein kinase JAK2 (Homo sapiens, UniProt O60674); assay: Inhibition of GST-fused JAK2 (808 to 1132 residues)(unknown origin) using Carboxyfluorescein-Ahx-GGEEEEYFELVKKKK peptide as substrate incubated for 30 mins in presence of ATP by caliper microfluidic mobility shift assay
[5] = target: T1, Tyrosine-protein kinase JAK3 (Homo sapiens, UniProt P52333); assay: Inhibition of GST-fused JAK3 (811 to 1124 residues)(unknown origin) using Carboxyfluorescein-Ahx-GGEEEEYFELVKKKK peptide as substrate incubated for 30 mins in presence of ATP by caliper microfluidic mobility shift assay
T1 sequence (P52333 whole entry): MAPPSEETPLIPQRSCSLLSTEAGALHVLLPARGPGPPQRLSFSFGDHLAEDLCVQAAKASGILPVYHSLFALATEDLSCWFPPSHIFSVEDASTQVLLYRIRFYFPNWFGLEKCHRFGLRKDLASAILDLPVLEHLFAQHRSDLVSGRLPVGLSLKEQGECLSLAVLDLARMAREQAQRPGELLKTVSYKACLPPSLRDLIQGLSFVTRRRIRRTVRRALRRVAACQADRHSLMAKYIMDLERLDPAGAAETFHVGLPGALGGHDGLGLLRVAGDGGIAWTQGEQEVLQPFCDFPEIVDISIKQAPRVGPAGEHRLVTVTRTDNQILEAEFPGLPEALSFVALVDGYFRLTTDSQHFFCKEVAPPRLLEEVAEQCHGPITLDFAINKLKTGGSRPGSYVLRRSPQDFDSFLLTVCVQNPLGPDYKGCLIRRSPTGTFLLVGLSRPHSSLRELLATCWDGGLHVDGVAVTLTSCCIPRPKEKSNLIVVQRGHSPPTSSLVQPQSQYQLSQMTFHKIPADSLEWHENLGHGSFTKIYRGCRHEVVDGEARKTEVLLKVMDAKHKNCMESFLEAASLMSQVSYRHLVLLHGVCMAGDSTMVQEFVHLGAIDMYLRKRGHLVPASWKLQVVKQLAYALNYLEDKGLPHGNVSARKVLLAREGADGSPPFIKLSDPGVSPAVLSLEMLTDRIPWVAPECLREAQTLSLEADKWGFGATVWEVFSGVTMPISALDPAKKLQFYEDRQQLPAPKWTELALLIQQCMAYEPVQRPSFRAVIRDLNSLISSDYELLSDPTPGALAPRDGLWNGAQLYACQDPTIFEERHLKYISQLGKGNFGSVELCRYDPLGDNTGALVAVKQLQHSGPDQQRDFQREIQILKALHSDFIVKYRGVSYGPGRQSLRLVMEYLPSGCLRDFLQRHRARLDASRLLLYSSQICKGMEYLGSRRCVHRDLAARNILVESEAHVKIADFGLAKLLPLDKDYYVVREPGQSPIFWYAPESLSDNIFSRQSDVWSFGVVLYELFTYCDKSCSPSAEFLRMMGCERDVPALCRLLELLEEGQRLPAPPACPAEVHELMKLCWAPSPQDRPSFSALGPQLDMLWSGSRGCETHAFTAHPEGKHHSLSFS

[6] = target: Non-receptor tyrosine-protein kinase TYK2 (Homo sapiens, UniProt P29597); assay: Inhibition of GST-fused TYK2 (888 to 1187 residues)(unknown origin) using FITC-Ahr-KKSRGDYMTMQIG-NH2 peptide as substrate incubated for 30 mins in presence of ATP by caliper microfluidic mobility shift assay
JAK3/JAK1 [7] = target: T2, JAK3/JAK1 (Homo sapiens, UniProt P23458+P52333); assay: Inhibition of JAK1/3-mediated STAT5 phosphorylation in human M07E cells preincubated for 30 mins followed by IL-15 stimulation measured after 15 mins by flow cytometry; assay type: cell-based
JAK3/JAK1 [8] = target: T2, JAK3/JAK1; assay: Inhibition of JAK1/3-mediated STAT5 phosphorylation in human whole blood incubated for 30 mins followed by IL-2 addition measured after 15 mins by flow cytometry; assay type: tissue-based
[9] = Permeability of compound; assay type: ADME; details: not told; read-out: permeability
[10] = Lipophilicity, LogD of compound; assay type: physicochemical; details: octanol/water
[11] = Solubility of the compound at pH 6.8 using amorphous form of sample; assay type: physicochemical; details: buffer
[12] = Saturation solubility of compound in PEG400/transcutol/benzyl alcohol/water mixture using amorphous form of sample; assay type: physicochemical
[13] = Stability of compound under temperature stress assessed as compound degradation at 50 degreeC measured after 7 days using amorphous form of sample; assay type: physicochemical; details: time 7 day; read-out: Drug degradation
[14] = Thermodynamic solubility of the compound at pH 6.8 using crystalline form of sample; assay type: physicochemical; details: read-out: Therm_solubility
[15] = Saturation solubility of compound in PEG400/transcutol/benzyl alcohol/water mixture using crystalline form of sample; assay type: physicochemical
[16] = Stability of compound under light stress assessed as compound decomposition under sunlight with intensity of 4000 KJ/m2, irradiation of 250 W/m2, wavelength of >290 nm, temperature of 37 degreeC for 4 hrs using crystalline form of sample; assay type: ADME; details: read-out: Drug degradation
[17] = Stability of compound under temperature stress assessed as compound degradation at 50 degreeC measured after 7 days using crystalline form of sample; assay type: physicochemical; details: time 7 day; read-out: Drug degradation
[18] = Stability of compound in fresh human skin explant using Franz diffusion cell model assessed as compound concentration in dermis at 3 % administered topically preincubated overnight followed by fresh media replacement in receiver fluid without compound and subsequently stimulated with IL-4/IL-13 measured after 40 hrs by LC-MS/MS analysis; assay type: ADME, tissue-based, Skin of body; details: topical or ocular, read-out: Ct
[19] = Drug penetration in fresh human skin explant using Franz diffusion cell model assessed as concentration of 2-(6-((5-carbamoyl-4-((2-methoxyphenyl)amino)pyridin-2-yl)amino)pyridin-3-yl)acetic acid metabolite in receiver fluid at 3 % administered topically preincubated overnight followed by fresh media replacement in receiver fluid without compound and subsequently stimulated with IL-4/IL-13 measured after 24 hrs by LC-MS/MS analysis; assay type: ADME, tissue-based, Skin of body; details: topical_or_ocular

T2 sequence (P23458 whole entry, one chain of several): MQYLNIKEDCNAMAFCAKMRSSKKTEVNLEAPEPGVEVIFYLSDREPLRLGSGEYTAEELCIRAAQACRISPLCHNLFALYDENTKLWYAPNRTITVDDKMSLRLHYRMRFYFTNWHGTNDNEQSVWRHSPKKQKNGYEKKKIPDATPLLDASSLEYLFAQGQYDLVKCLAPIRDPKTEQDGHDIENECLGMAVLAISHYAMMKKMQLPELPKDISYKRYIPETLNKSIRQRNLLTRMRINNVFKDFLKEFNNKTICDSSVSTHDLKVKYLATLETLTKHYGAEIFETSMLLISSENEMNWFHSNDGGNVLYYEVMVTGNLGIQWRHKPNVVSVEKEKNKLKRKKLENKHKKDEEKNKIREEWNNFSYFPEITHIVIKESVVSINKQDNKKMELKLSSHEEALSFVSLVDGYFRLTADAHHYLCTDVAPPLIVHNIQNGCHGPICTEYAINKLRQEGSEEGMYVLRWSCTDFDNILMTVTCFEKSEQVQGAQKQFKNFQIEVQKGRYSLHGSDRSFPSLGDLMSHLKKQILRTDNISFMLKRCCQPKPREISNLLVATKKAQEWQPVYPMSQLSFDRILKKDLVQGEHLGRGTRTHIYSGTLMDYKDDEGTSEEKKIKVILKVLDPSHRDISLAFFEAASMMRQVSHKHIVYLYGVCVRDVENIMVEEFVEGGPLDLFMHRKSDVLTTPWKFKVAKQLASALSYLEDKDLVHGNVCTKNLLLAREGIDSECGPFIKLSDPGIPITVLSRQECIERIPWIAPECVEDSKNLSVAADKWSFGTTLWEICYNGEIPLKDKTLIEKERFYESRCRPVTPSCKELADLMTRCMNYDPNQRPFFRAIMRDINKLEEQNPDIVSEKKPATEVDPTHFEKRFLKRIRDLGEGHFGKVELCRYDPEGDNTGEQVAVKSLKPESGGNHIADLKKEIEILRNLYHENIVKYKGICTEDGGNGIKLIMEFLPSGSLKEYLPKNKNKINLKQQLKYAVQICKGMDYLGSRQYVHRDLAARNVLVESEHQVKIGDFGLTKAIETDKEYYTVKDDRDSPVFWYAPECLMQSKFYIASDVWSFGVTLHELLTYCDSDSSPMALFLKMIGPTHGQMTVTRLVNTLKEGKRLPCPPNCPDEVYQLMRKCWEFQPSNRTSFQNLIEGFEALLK
Non-receptor tyrosine-protein kinase TYK2, sequence (P29597 whole entry, the tested form may be a part): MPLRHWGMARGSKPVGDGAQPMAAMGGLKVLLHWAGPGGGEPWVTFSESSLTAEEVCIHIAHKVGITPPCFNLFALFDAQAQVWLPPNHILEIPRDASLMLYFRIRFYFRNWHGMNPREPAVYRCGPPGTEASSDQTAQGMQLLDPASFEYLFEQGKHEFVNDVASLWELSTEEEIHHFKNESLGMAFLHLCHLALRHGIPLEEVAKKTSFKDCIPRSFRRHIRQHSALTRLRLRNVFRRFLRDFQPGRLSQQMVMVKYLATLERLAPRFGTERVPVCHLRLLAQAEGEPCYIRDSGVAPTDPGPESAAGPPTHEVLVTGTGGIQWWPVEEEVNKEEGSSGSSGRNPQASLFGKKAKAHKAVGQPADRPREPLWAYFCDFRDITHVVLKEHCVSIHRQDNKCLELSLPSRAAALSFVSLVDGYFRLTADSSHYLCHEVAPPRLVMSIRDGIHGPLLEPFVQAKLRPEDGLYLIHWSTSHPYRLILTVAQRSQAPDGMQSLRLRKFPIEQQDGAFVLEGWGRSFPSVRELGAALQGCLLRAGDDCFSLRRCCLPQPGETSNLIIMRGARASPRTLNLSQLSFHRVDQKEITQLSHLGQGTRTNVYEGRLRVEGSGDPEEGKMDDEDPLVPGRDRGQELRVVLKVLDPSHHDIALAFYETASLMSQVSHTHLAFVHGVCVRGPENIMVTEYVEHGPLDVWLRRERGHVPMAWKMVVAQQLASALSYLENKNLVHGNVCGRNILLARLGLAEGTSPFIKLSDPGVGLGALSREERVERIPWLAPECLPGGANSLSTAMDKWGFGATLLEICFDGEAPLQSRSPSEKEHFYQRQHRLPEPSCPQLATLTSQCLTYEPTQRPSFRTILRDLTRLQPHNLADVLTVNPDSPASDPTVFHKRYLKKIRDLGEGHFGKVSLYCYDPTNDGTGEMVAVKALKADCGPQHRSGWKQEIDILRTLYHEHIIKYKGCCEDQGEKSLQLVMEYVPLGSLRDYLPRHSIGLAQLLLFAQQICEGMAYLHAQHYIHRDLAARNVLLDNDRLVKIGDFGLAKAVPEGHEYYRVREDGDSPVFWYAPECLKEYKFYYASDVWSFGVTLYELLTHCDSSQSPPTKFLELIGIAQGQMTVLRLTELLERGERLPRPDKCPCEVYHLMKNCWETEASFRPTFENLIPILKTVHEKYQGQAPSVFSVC
Tyrosine-protein kinase JAK2, sequence (O60674 whole entry, the tested form may be a part): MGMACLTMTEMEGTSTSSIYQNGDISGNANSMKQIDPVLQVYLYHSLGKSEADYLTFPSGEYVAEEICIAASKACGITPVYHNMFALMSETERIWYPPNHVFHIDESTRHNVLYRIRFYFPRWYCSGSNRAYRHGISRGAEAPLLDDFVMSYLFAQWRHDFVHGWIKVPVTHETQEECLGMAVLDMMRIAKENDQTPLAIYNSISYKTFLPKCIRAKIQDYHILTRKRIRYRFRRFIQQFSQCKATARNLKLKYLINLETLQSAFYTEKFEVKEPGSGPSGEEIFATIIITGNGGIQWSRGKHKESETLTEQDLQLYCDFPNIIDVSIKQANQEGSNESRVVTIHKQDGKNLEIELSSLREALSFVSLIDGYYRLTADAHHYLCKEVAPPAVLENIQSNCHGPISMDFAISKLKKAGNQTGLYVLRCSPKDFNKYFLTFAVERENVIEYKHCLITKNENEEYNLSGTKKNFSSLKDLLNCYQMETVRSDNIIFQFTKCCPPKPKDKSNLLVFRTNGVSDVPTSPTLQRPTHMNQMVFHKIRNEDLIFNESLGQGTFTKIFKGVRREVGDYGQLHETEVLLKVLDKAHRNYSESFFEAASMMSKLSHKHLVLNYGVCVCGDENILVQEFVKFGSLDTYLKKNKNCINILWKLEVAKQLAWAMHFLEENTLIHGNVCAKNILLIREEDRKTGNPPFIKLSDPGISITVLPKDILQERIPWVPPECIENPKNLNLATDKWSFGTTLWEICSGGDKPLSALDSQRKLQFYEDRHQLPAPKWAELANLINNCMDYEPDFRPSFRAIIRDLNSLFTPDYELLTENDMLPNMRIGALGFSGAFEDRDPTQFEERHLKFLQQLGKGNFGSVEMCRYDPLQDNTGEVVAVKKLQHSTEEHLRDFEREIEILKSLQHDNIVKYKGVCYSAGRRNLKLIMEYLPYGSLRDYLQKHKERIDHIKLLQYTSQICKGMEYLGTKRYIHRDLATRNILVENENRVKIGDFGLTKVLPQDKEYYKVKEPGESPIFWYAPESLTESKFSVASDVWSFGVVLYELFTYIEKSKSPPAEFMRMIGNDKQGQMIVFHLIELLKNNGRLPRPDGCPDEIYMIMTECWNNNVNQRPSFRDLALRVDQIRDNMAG
Tyrosine-protein kinase JAK1, sequence (P23458 whole entry, the tested form may be a part): as the sequence (P23458 whole entry, one chain of several) above
JAK2/JAK1, sequence (P23458 whole entry): as the sequence (P23458 whole entry, one chain of several) above
JAK2/JAK1, sequence (O60674 whole entry): as the sequence (O60674 whole entry, the tested form may be a part) above

| Structure (SMILES) | IC50 (JAK2/JAK1) | half-life at 1 µM [1] | half-life [2] | IC50 [3] | IC50 [4] | IC50 [5] | IC50 [6] | IC50 (JAK3/JAK1 [7]) | IC50 (JAK3/JAK1 [8]) | Papp [9] | logD [10] | solubility [11] | solubility thermodynamic [12] | degraded at 168 h [13] | solubility thermodynamic [14] | solubility thermodynamic [15] | degraded at 4 h [16] | degraded at 168 h [17] | concentration at 40 h, 3 % [18] | Drug uptake [19] |
| --- | --- | --- | --- | --- | --- | --- | --- | --- | --- | --- | --- | --- | --- | --- | --- | --- | --- | --- | --- | --- |
| NC(=O)c1cnc(Nc2cccc(O)n2)cc1Nc1ccccc1Cl | > 10000 nM | > 60 min | > 200 min |  |  |  |  |  |  |  |  |  |  |  |  |  |  |  |  |  |
| NC(=O)c1cnc(Nc2ccc(CC(=O)O)cn2)cc1Nc1ccccc1Cl | 3860 nM | > 240 min | < 240 min | 9 nM | 19 nM | 10 nM | 10 nM | 2580 nM | > 50000 nM | 0.9 ×10⁻⁶ cm/s | 0.4 |  |  |  |  |  |  |  |  |  |
| COc1ccccc1Nc1cc(Nc2ccc(CC(=O)O[C@@H]3CCOC3)cn2)ncc1C(N)=O | 48 nM |  | 8 min | 3 nM | 4 nM | 3 nM | 2 nM | 67 nM | > 50000 nM |  |  |  |  |  |  |  |  |  |  |  |
| CC(C)OC(=O)Cc1ccc(Nc2cc(Nc3ccccc3Cl)c(C(N)=O)cn2)nc1 | 115 nM | 65 min | 67 min | 29 nM | 27 nM | 28 nM |  | 71 nM | 1200 nM |  |  |  |  |  |  |  |  |  |  |  |
| CCOC(=O)Cc1ccc(Nc2cc(Nc3ccccc3Cl)c(C(N)=O)cn2)nc1 | 60 nM | 7 min | 14 min | 20 nM | 17 nM | 18 nM |  | 24 nM | 12200 nM | 11 ×10⁻⁶ cm/s | 4.6 | 0.1 µg/mL (≈ 0.235 µM) | 8700 µg/mL (≈ 20400 µM) | 1% |  |  |  |  |  |  |
| CCOC(=O)CCc1ccc(Nc2cc(Nc3ccccc3Cl)c(C(N)=O)cn2)nc1 | 185 nM |  | 8 min | 27 nM | 25 nM | 25 nM | 37 nM | 171 nM | 2500 nM |  |  |  |  |  |  |  |  |  |  |  |
| COc1ccccc1Nc1cc(Nc2ccc(CC(=O)O[C@H]3CCOC3)cn2)ncc1C(N)=O | 44 nM | 5 min | 39 min | 5 nM | 5 nM | 5 nM | 2 nM | 89 nM | 16000 nM | 20 ×10⁻⁶ cm/s | 3 |  |  |  | 31 µg/mL (≈ 66.9 µM) | > 18000 µg/mL | 3.3% | 2.4% | 54 µM | 0.124 µM |
| CCOC(=O)Cc1ccc(Nc2cc(Nc3ccccc3OC)c(C(N)=O)cn2)nc1 | 58 nM | 5 min | 12 min | 19 nM | 26 nM | 56 nM | 21 nM | 80 nM | 10200 nM | 28 ×10⁻⁶ cm/s | 2.9 |  |  |  | 1 µg/mL (≈ 2.37 µM) | ≥ 9000 µg/mL | 0% | 2% |  |  |
| CCOC(=O)c1ccc(Nc2cc(Nc3ccccc3Cl)c(C(N)=O)cn2)nc1 | 288 nM |  |  | 120 nM | 110 nM | 170 nM |  | 189 nM | 10300 nM |  |  |  |  |  |  |  |  |  |  |  |
| COC[C@H](C)OC(=O)Cc1ccc(Nc2cc(Nc3ccccc3OC)c(C(N)=O)cn2)nc1 | 58 nM |  | 12 min | 1 nM | 2 nM | 1 nM |  | 115 nM | > 50000 nM |  |  |  |  |  |  |  |  |  |  |  |
| COCCOC(=O)Cc1ccc(Nc2cc(Nc3ccccc3OC)c(C(N)=O)cn2)nc1 | 14 nM |  | 5 min | 6 nM | 6 nM | 4 nM | 2 nM | 63 nM | > 30000 nM |  | 2.9 |  |  |  |  |  |  |  |  |  |
| CCOC(=O)COc1ccc(Nc2cc(Nc3ccccc3Cl)c(C(N)=O)cn2)nc1 | 185 nM |  | 4 min | 69 nM | 76 nM | 69 nM | 54 nM | 141 nM | 7530 nM |  |  |  |  |  |  |  |  |  |  |  |
